Measurements: patent US11247983B2, “Compounds and methods for inhibiting JAK” (Dizal (Jiangsu) Pharmaceutical Co., Ltd., priority 2015, dated 2022)

What was measured:
[1] = tested on: NCI-H1975 tumor xenografts; test: In vivo efficacy in the H1975 xenograft model (Example 69); design: species or system mice; settings: oral, 18 days; osimertinib 2.5 mg/kg QD, Example 32 12.5, 25 or 50 mg/kg BID; combination compared to osimertinib alone, single agent relative to vehicle
Protocol: (§1) Tumor volume was measured twice a week.

[2] = tested on: pSTAT3 (Y705) in NCI-H1975 tumors; test: pSTAT3 (Y705) levels in NCI-H1975 tumor lysates (pharmacodynamics, Example 69); assay type: in vivo, mice; settings: Example 32 12.5, 25, 50 mg/kg BID, after one day of treatment, samples 2, 8 and 24 hours after the AM dose
Protocol: MATERIALS AND METHODS: NCI-H1975 cells (a human NSCLC cell line with L858R and T790M mutations in the EGFR gene) tumor cells were implanted subcutaneously in female NCr nude mice (Taconic Laboratories), 3×10^6 cells/mouse. […] Drug levels in plasma were measured by LC/MS, using a Linear Ion Trap Quadrupole LC/MS/MS Mass Spectrometer (QTRAP 5500 model 1024945-BB, AB Sciex Instruments), with separation on a Waters Xbridge C18 column.

[3] = tested on: pSTAT3 (Y705) in PC-9 tumors; test: pSTAT3 (Y705) levels in PC-9 tumor lysates (Western blot, Example 70); assay type: in vivo, mice; settings: Example 32 12.5 and 50 mg/kg BID with gefitinib, last day of treatment, 2, 8 and 24 hours after the AM dose
[4] = tested on: NCI-H1650 tumor xenografts; test: In vivo efficacy in the H1650 xenograft model (Example 71); design: species or system mice; settings: oral, 21 days; gefitinib 6.25 mg/kg QD, Example 32 25 or 50 mg/kg BID; combination compared to single agent gefitinib
Protocol: as §1

[5] = tested on: pSTAT3 (Y705) in NCI-H1650 tumors; test: pSTAT3 levels in NCI-H1650 tumor lysates (Western blot, Example 71); assay type: in vivo, mice; settings: measured after one day of treatment
Protocol: Twenty-three days after cell implantation, the mice were randomized into 6 groups (9 mice/group, average tumor volume 257 mm^3, range 205-303 mm^3). […] Drug levels in plasma were measured by LC/MS, using a Linear Ion Trap Quadrupole LC/MS/MS Mass Spectrometer (QTRAP 5500 model 1024945-BB, AB Sciex Instruments), with separation on a Waters Xbridge C18 column.

[6] = tested on: LG1049 non-small cell lung cancer PDX tumor xenografts; test: In vivo efficacy in the LG1049 xenograft PDX model (Example 72)
Protocol: SUMMARY: LG1049 non-small cell lung cancer PDX tumor xenografts were grown subcutaneously in female NSG mice. […] Tumor volume was measured twice a week.
(§2) MATERIALS AND METHODS: LG1049 tumor fragments were implanted subcutaneously in female NSG mice (JAX Stock No. 005557).

[7] = tested on: pSTAT3 (Y705) in LG1049 tumors; test: pSTAT3 levels in LG1049 tumor lysates (Western blot, Example 72); assay type: in vivo, mice; settings: Example 32 25 mg/kg BID, 5 days of treatment, 4H after the final dose
Description: MATERIALS AND METHODS: LG1049 tumor fragments were implanted subcutaneously in female NSG mice (JAX Stock No. 005557). Once tumor volumes reached ˜125-275 mm^3, mice were randomized into 5 groups (10 mice/group, average tumor volume 189 mm^3, range 138-253 mm^3).

[8] = tested on: NCI-H1975 tumor xenografts; test: In vivo efficacy of intermittent Example 32 dosing schedules in the H1975 xenograft model (Example 73); design: species or system mice; settings: oral, 19 to 29 days; osimertinib 2.5 mg/kg QD, Example 32 12.5, 25 or 50 mg/kg BID on continuous or intermittent schedules; combination compared to osimertinib alone, single agent relative to vehicle
Protocol: as §1
MATERIALS AND METHODS: NCI-H1975 cells (a human NSCLC cell line with L858R and T790M mutations in the EGFR gene), were implanted subcutaneously in female NCr nude mice (Taconic Laboratories), 3×10^6 cells/mouse.

[9] = tested on: pEGFR (pY1173) in LG1049 tumors; test: pEGFR levels in LG1049 tumor lysates (Western blot, Example 72); assay type: in vivo, mice; settings: osimertinib 25 mg/kg QD, 5 days of treatment, 4H after the final dose
Description: as §2

Row | SMILES | antitumor activity (tumor volume, FIG. 19) [1] | pSTAT3 knockdown in tumors (FIG. 21) [2] | duration of pSTAT3 knockdown in tumors (FIG. 24) [3] | antitumor activity (tumor volume, FIG. 25) [4] | knockdown of pSTAT3 in tumors (FIG. 27) [5] | body weight (FIG. 29) ([6]; mouse, in vivo) | antitumor activity / tumor regression (tumor volume, FIG. 28) ([6]; oral, osimertinib 25 mg/kg QD 28 days, Example 32 25 mg/kg BID (18 days as single agent), combination compared to osimertinib alone, single agent relative to vehicle) | knockdown of pSTAT3 in tumors (FIG. 30) [7] | antitumor activity (tumor volume, FIG. 31A-31E) [8] | body weight (FIG. 29) ([6]; LG1049 tumor bearing NSG mice, weight loss attributed to tumor growth) | tumor regrowth when treatment was stopped after 28 days ([6]; after 28 days of dosing) | knockdown of pEGFR in tumors (FIG. 30) [9]
1 | COc1nn(C)cc1Nc1nccc(-c2c[nH]c3c(NC(=O)[C@@H](C)N4CCN(C)CC4)cccc23)n1 [Example 32, (2R)-N-(3-{2-[(3-methoxy-1-methyl-1H-pyrazol-4-yl)amino]pyrimidin-4-yl}-1H-indol-7-yl)-2-(4-methylpiperazin-1-yl)propanamide] | only weak antitumor activity | dose dependent increase in pSTAT3 knockdown | dose dependent increase in the duration of pSTAT3 knockdown | only modest antitumor activity | Knockdown of pSTAT3 was observed | significant weight loss | no significant activity relative to vehicle control treatment | robust knockdown | no significant activity relative to vehicle control treatment | – | – | –
2 | C=CC(=O)Nc1cc(Nc2nccc(-c3cn(C)c4ccccc34)n2)c(OC)cc1N(C)CCN(C)C [osimertinib, reference compound] | – | – | – | – | – | – | – | – | – | lack of significant weight loss | tumors rapidly regrew | robust knockdown
